From US4377587A, “Arylamine derivatives and use thereof as microbicides” (Ciba-Geigy Corporation, priority 1980, dated 1983)
≈ marks a conversion by molar mass, not a printed value.

What was measured:
[1] = test system: Venturia inaequalis; assay: Residual-protective action against Venturia inaequalis on apple shoots; assay type: in vivo; conditions: spray 0.06%, evaluated 15 days after infection
Method: Residual-protective action against Venturia inaequalis on apple shoots
Apple cuttings with 10-20 cm long fresh shoots are sprayed with a spray mixture prepared from a wettable powder formulation of the active ingredient (0.06%). After 24 hours the treated plants are infected with a conidia suspension of the fungus. The plants are then incubated for 5 days at 90-100% relative humidity and stood in a greenhouse for a further 10 days at 20°-24° C. Scab infestation is evaluated 15 days after infection.

[2] = test system: Pythium debaryanum; assay: Action on Pythium debaryanum on sugar beets, (b) after seed dressing application; assay type: in vivo; conditions: sugar beet, seed dressing 0.06%, 2-3 weeks at c. 20° C.
Method: (§1) Action on Pythium debaryanum on sugar beets
(b) Action after seed dressing application
The fungus is cultivated on carrot chip nutrient solution and added to a mixture of earth and sand. Flower pots are filled with the infected soil and sugar beet seeds which have been treated with the test preparations formulated as seed dressing powders are sown therein (0.06% of one of the compounds of Tables 1 and 2). The pots are then stood in a greenhouse for 2-3 weeks at c. 20° C. The soil is kept uniformly moist by gently spraying it with water. The emergence of the sugar beet plants is ascertained in evaluating the test.

[3] = test system: Phytophthora infestans; assay type: in vivo, Phytophthora infestans (on tomato plants); conditions: tomato, sprayed 0.06% active ingredient 22 hours after infestation, evaluated 5 days after infestation
[4] = test system: Phytophthora infestans; assay type: in vivo, Phytophthora infestans (on tomato plants); conditions: tomato, spray 0.06% active ingredient, infested after 24 hours, evaluated after 5 days at 20° C.
[5] = test system: Pythium debaryanum; assay: Action on Pythium debaryanum on sugar beets, (a) after soil application; assay type: in vivo; conditions: sugar beet, 20 ppm of active ingredient based on volume of soil, 2-3 weeks at 20°-24° C.
Excerpt: as §1
(a) Action after soil application
The fungus is cultivated on carrot chips nutrient solution and added to a mixture of earth and sand. Flower pots are filled with the infected soil, in which sugar beet seeds are then sown. Immediately after sowing, the test preparations formulated as wettable powders are poured in the form of aqueous suspensions over the soil (20 ppm of active ingredient, based on the volume of the soil). The pots are then stood for 2-3 weeks in a greenhouse at 20°-24° C. The soil is kept uniformly moist by gently spraying it with water. The emergence of the sugar beet plants as well as the number of healthy and sick plants are ascertained in evaluating the test.

[6] = test system: Podosphaera leucotricha; assay: Residual-protective action against Podosphaera leucotricha on apples; assay type: in vivo; conditions: apple seedlings, spray 0.06% of active ingredient, evaluated 12 days after infection
Method: Residual-protective action against Podosphaera leucotricha on apples
Apple seedlings in the 5-leaf stage are sprayed with a spray mixture (0.06% of active ingredient) prepared from a wettable powder formulation of the active ingredient. After 24 hours the treated plants are infected with a conidia suspension of the fungus and placed in a climatic chamber at 70% relative humidity and 20° C. Evaluation of fungus infestation is made 12 days after infection.

[7] = test system: Erysiphe graminis; assay: Action against Erysiphe graminis on barley, residual protective action; assay type: in vivo, Erysiphe graminis (on barley plants); conditions: 0.02% active ingredient sprayed, infected after 3-4 hours, evaluated after 10 days
Method: Action against Erysiphe graminis on barley
Residual protective action
Barley plants about 8 cm in height are sprayed with a spray mixture (0.02% of active ingredient) prepared from the active ingredient formulated as a wettable powder. The treated plants are dusted with conidia of the fungus after 3-4 hours. The infected barley plants are then stood in a greenhouse at about 22° C. The extent of the fungus infection is evaluated after 10 days.

[8] = Volatility: evaporation half-life T50 in an evaporating tube; assay type: physicochemical; conditions: 50° C., stream of air of 20 m/h, relative to T50 of Metalaxyl
Method: (§2) Determination of physico-chemical data
In an evaporating tube, the evaporation half-life values T50 of representative fungicides of this invention are determined at 50° C. and in a stream of air of 20 m/h. The values are shown below, relative to the corresponding half-life T50 of Metalaxyl.

[9] = Water solubility; assay type: physicochemical; conditions: 25° C.
Excerpt: as §2
(a) Reduced water solubility

| SMILES | scab infestation (reduced to) [1] | emergent plants (fully effective against Pythium pathogens), seed dressing application [2] | fungus attack compared with untreated and infected control plants (100% attack), residual curative [3] | fungus attack compared with untreated control plants (100% attack), residual-protective [4] | emergent plants (fully effective against Pythium pathogens), soil application [5] | fungus attack compared with untreated and infected control seedlings (100% attack) [6] | fungus attack compared with control plants (100% attack) [7] | Multiple of Metalaxyl T50 (evaporation half-life) [8] [×] | solubility [9] [mg/mL] |
| --- | --- | --- | --- | --- | --- | --- | --- | --- | --- |
| COCC(=O)N(c1c(N)ccc(C)c1C)C(C)C(=O)OC (stereo not shown) [Compound 8, N-(1'methoxycarbonylethyyl)-N-methoxyacetyl-2,3-dimethyl-6-aminoaniline] | 10-15% | over 90% | less than 10% | less than 10% | over 90% | less than 10% | – | – | – |
| COCC(=O)N(c1c(C)ccc(N)c1C)C(C)C(=O)OC (stereo not shown) [Compound 10, N-(1'methoxycarbonylethyl)-N-methoxyacetyl-2,6-dimethyl-3-aminoaniline] | 10-15% | over 90% | less than 10% | less than 10% | over 90% | less than 10% | less than 10% | – | – |
| COCC(=O)N(c1c(C)ccc([N+](=O)[O-])c1C)C(C)C(=O)OC(C)C (stereo not shown) [Compound 33, N-(1'-isopropyloxycarbonylethyl)-N-methoxyacetyl-2,6-dimethyl-3-nitroaniline] | – | over 90% | less than 10% | less than 10% | over 90% | less than 10% | – | 45.6 | 0.5 (≈ 1.42 mM) |
| COCC(=O)N(c1c(C)cccc1[N+](=O)[O-])C(C)C(=O)OC (stereo not shown) [Compound 48, N-(1'-methoxycarbonylethyl)-N-methoxyacetyl-2-methyl-6-nitroaniline] | – | over 90% | less than 10% | less than 10% | over 90% | less than 10% | – | 12.3 | 4 (≈ 12.9 mM) |
| CCOCC(=O)N(c1c(C)ccc([N+](=O)[O-])c1C)C(C)C(=O)OC (stereo not shown) [Compound 31, N-(1'-methoxycarbonylethyl)-N-ethoxyacetyl-2,6-dimethyl-3-nitroaniline] | 10-15% | over 90% | less than 10% | less than 10% | over 90% | less than 10% | – | 41.8 | 2.5 (≈ 7.39 mM) |
| COCC(=O)N(c1c(C)cccc1N)C(C)C(=O)OC (stereo not shown) [Compound 2, N-(1'-methoxycarbonylethyl)-N-methoxyacetyl-2-amino-6-methyl-aniline] | – | over 90% | less than 10% | less than 10% | over 90% | less than 10% | – | 5.4 | 0.3 (≈ 1.07 mM) |
| COCC(=O)N(c1c(N)ccc2ccccc12)C(C)C(=O)OC (stereo not shown) [Compound 701, 1N-(1'-methoxycarbonylethyl)-1N-methoxyacetyl-1,2-diaminonaphthalene] | 10-15% | over 90% | less than 10% | less than 10% | over 90% | – | – | – | – |
| COCC(=O)N(c1c(C)ccc([N+](=O)[O-])c1C)C(C)C(=O)OC (stereo not shown) [Compound 28, N-(1'-methoxycarbonylethyl)-N-methoxyacetyl-2,6-dimethyl-3-nitroaniline] | 10-15% | over 90% | less than 10% | less than 10% | over 90% | less than 10% | – | 35.8 | 2.5 (≈ 7.71 mM) |
